According to patent publication US20120309087A1, “CANCER THERAPY” (University Court of The University of Dundee, priority 2006, published 2012):

What was measured:
[1] = system: ARE-driven luciferase activity in AREc32 cells; assay: Antagonism of induced ARE-driven luciferase activity in AREc32 cells; type: cell-based, human
[2] = system: GST, GCLC and NQO1 in the small intestine; assay: ARE-regulated proteins in small intestine of mice on vitamin A deficient diet; type: in vivo; details: wild-type mice; ATRA i.p. 10 mg/kg daily for last 2 weeks of VAD diet
Description: Wild-type (nrf2^+/+) and knockout (KO, nrf2^−/−) mice, 8 weeks old, were placed on control or vitamin A deficient (VAD) diet for six weeks as described in “Materials and Methods II”. Portions (5 μg protein) of crude extracts from small intestine of wild-type and KO mice were subjected to Western blotting with specific antibodies against NQO1, GstM5, GstA1/2 and GCLC. Each lane contains a sample from an individual mouse. […] These animals were sacrificed and immunoblotting for GST, GCLC and NQO1 performed as before.
Homozygous Nrf2 KO mice and mouse genotyping were as described previously (Itoh et al., 1997). Two month old, C57BL/6 nrf2^−/− and nrf2^+/+ male mice were used in this study. Animals were maintained in a 12-h light-dark cycle, with free access to food and water. The mice were weighed daily during the experiment period. All animal procedures were carried out under UK Home Office license and after gaining local ethical committee approval.
Two feeding experiments were carried out. In Experiment 1, at the first stage, which lasted for four weeks, Nrf2 (+/+) mice were maintained on a retinoic acid deficient VAD diet (Special Diet Services, Witham, Essex, UK). […] In experiment 2, Nrf2 (−/−) mice were maintained on control or VAD diet for six weeks. […]

[3] = system: AKR1C protein in Caco-2 cells; assay: AKR1C protein in Caco-2 cells (Western blotting); type: cell-based, human; details: sulforaphane 5 μM, BTB09463 5 μM or Retinoic acid 1 μM, 24 hrs
Description: Method: AREc32 cells were seeded out in 96 well plates and treated with DMSO (control), tBHQ (50 μM), tBHQ+BTB09463 (5 μM) or tBHQ+Retinoic acid (1 μM). After 24 hours incubation, cells were washed and lysed before measuring luciferase activity. BTB09463 is 1-{4-[(3,4-dichlorobenzyl)oxy]phenyl}ethan-1-one. […] Method: AREc32 cells were seeded out in 96 well plates and dosed with BTB09463 (2.5, 5 or 10 μM) for 0, 24 or 48 hrs before treatment with tBHQ (50 μM). 24 hours after the addition of tBHQ, cells were washed and lysed before measuring luciferase activity. […] Method: ARE c32 cells were seeded out in 96 well plates and treated with DMSO (control), tBHQ (50 μM), tBHQ+retinoid (0.25, 0.5 and 1 μM). After 24 hours incubation, cells were washed and lysed before measuring luciferase activity. […] See FIG. 16 Method: A. Caco-2 cells were treated with the known ARE-gene inducer sulforaphane (5 μM), either alone or concomitantly with BTB09463 (5 μM) or Retinoic acid (1 μM). After 24 hrs, cell lysates were prepared and Western blotting performed to measure the levels of AKR1C protein. B. MCF7 cells were treated with sulforaphane (5 μM), either alone or concomitantly with BTB09463 (5 μM). After 24 hrs, cell lysates were prepared and Western blots performed to detect the levels of AKR1C and NQO1; GAPDH was used as a loading control in MCF7 cells. […] Method: Caco-2 cells were treated with DMSO (control), BTB09463 (5 μM), sulforaphane (5 μM) or a combination of sulforaphane plus BTB09463. After 24 hrs treatment, cells were harvested and RNA isolated. cDNA for each sample was generated by reverse transcription and subsequently used in real time PCR analysis of gene transcription (TaqMan analysis) for the ARE-driven genes AKR1C1 and NQO1. Data was normalised to the internal control 18S RNA and the relative levels of AKR1C1 and NQO1 calculated using the comparative CT method. […] Method: MCF7 cells were treated with the known ARE-gene inducer sulforaphane (5 μM), either alone or with various retinoids (0.5 μM). After 24 hrs, cell lysates were prepared and Western blots were performed to detect the levels of AKR1C protein present. […] See FIG. 19 Method: ARE reporter cell line AREc23 was seeded into 96 well plates and treated with a previously determined non-toxic concentration of cytotoxic drug. After 24 hours incubation, cells were washed and lysed before measuring luciferase activity. […] See FIG. 20a Method: ARE reporter cell line AREc23 was seeded into 96 well plates and treated with DMSO (control), Carmustine (100 μM), Carmustine+BTB09463 (5 μM) or Carmustine+Retinoic acid (5 μM) After 24 hours incubation, cells were washed and lysed before measuring luciferase activity. […] After 24 hours incubation, cells were washed and lysed before measuring luciferase activity. […]

[4] = system: AKR1C1, NQO1, GCLC, GCLM mRNA in A549 cells; assay: Constitutive mRNA of ARE-driven genes in A549 cells (Taqman); type: cell-based, human; details: 24 hrs
[5] = molecular target: interaction between RARα and Nrf2 (Homo sapiens, UniProt P10276); assay: Co-immunoprecipitation of RARα and Nrf2; type: binding; details: co-immunoprecipitation experiments
[6] = system: AKR1C mRNA in AREc32 cells; assay: AKR1C mRNA in AREc32 cells (TaqMan)
[7] = system: AKR1C protein in AREc32 cells; assay: AKR1C protein in AREc32 cells (western blotting); details: 1 μM ATRA, 10 μM tBHQ; scanning of the Western blots
[8] = system: Nrf2; assay: Nuclear Nrf2 level in AREc32 cells (western blot of nuclear extracts); details: 10 μM tBHQ plus 1 μM ATRA, 24 h
[9] = system: binding of Nrf2 to an ARE sequence; assay: Biotinylated ARE oligonucleotide pull-down assay, AREc32 nuclear extracts; details: 10 μM tBHQ with 1 μM ATRA, 24 h
[10] = system: protein complexes binding to an ARE sequence; assay: Electrophoretic mobility shift assay with ARE probe, AREc32 nuclear extracts; details: 10 μM tBHQ with 1 μM ATRA, 24 h
[11] = 1 μM ATRA with 10 μM tBHQ, acrolein, NF or Sul, 24 h

Sequence of interaction between RARα and Nrf2 (P10276 whole entry): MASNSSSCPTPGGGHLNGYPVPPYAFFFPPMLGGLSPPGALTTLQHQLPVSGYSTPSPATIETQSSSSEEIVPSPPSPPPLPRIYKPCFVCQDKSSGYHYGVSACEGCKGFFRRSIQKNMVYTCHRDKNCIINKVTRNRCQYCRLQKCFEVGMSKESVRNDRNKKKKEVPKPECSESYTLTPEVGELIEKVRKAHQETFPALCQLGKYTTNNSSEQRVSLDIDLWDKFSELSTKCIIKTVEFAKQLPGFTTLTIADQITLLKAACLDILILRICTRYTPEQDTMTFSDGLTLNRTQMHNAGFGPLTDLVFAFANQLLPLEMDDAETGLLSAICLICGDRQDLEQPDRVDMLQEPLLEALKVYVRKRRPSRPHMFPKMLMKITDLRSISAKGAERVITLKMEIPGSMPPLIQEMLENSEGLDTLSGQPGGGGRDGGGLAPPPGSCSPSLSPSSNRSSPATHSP
Sequence of interaction between RARα and Nrf2 (Q16236 whole entry partner): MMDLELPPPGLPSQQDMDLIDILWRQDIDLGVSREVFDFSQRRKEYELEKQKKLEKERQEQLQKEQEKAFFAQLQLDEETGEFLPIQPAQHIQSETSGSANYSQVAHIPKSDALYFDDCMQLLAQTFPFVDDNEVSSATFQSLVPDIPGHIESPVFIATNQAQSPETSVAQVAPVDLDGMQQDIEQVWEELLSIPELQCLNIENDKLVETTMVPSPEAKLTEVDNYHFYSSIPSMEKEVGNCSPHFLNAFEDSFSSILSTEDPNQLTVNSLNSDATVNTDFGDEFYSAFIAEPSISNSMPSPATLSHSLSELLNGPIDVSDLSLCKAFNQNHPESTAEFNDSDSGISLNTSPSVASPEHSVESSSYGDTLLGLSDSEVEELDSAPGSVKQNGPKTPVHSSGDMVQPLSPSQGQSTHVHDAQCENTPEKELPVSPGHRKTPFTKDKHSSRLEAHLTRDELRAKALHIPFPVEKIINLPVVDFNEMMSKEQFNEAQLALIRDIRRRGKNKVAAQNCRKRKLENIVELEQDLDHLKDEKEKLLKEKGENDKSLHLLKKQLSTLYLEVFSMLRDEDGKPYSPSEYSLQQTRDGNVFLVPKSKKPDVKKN

For `CC1=C(/C=C/C(C)=C/C=C/C(C)=C/C(=O)O)C(C)(C)CCC1` [ATRA, all trans-retinoic acid], the “effect on increase in ARE-driven luciferase activity by inducing agents” value [1, 11] was “significantly attenuated”, the “luciferase activity following subtraction of the DMSO control” value [1, 11] was “almost complete ablation of luciferase activity” and the “induction of ARE-driven luciferase activity by anticancer drugs” value ([1]; 1 μM ATRA with cisplatin, melphalan, chlorambucil or BCNU, no BSO) was “prevented”. The “ARE responses to anticancer drugs after BSO pre-treatment” value ([1]; 1 μM ATRA, 50 μM BSO pre-treatment, after subtraction of DMSO control) was “reduced almost to background levels”, the “lag phase before increase of luciferase activity” value ([1]; 10 μM tBHQ plus 1 μM ATRA simultaneously) was 16 h and the “suppression of tBHQ induction of luciferase” value ([1]; 50 μM tBHQ + 1 μM Retinoic acid, 24 h) was ~75%. For the same compound, the “carmustine-mediated induction of luciferase activity” value ([1]; Carmustine 100 μM + BTB09463 5 μM or Retinoic acid 5 μM, 24 hours) was “completely suppress”, the “induction of ARE-driven genes (GstM5, GCLC, NQO1, GstA1) by VAD diet in the small intestine” value [2] was “almost completely reversed” and the “sulforaphane induction of AKR1C protein” value [3] was “dramatically reduced”. For the same compound, the “constitutive expression of AKR1C1 mRNA” value ([4]; BTB09463 1, 5, 20, 40 μmol/l or retinoids 0.050, 0.20, 0.50, 2.0 μmol/l) was “inhibited the constitutive expression of AKR1C1 in a concentration-dependent manner”, the “constitutive mRNA levels of NQO1, GCLC and GCLM” value ([4]; BTB09463 1-40 μmol/l or retinoic acid 0.050-2.0 μmol/l) was “repressed the constitutive mRNA levels of NQO1, GCLC and GCLM in a concentration-dependent manner” and the “association between RARα and Nrf2” value [5] was “greatly promoted”. The “inhibition of tBHQ induction of AKR1C1 mRNA” value ([6]; 1 μM ATRA, after subtracting the DMSO control) was “approximately 85%”, the “induction of AKR1C1 mRNA by tBHQ on co-incubation” value ([6]; 10 μM tBHQ plus 1 μM ATRA, 24 h) was 3 fold and the “reduction of tBHQ-induced AKR1C protein” value [7] was “approximately 50%”. For the same compound, the “nuclear translocation / nuclear concentration of Nrf2” value [8] was “did not block nuclear translocation of Nrf2”, the “binding of Nrf2 to the ARE (pull-down)” value [9] was “inhibited the binding of Nrf2 to the ARE” and the “binding of complexes to core ARE sequence (EMSA)” value [10] was “binding was reduced”.
